A value given as a limit tells only on which side of the number the result lay.

This note sets out measurements from patent US6344477B1, “Prostaglandin e agonists for treatment of dry eye” (Alcon Manufacturing, Ltd., priority 1998, dated 2002).

Assay [1] deals with T1, EP2 Receptors in Immortalized Human Non-pigmented Ciliary Epithelial Cells (Homo sapiens, UniProt P43116).
T1 construct: Immortalized human non-pigmented ciliary epithelial cells (containing EP2 receptors); endogenous in cells; host or cells: immortalized human non-pigmented ciliary epithelial cells
Description: cAMP production (radioimmunoassay) via EP2 receptors in immortalized human non-pigmented ciliary epithelial cells. The conditions noted are these: for EC50: cAMP production, 15-60 min at 23° C., read-out: Potency (EC50, nM) at EP2 Receptors in Immortalized Human Non-pigmented Ciliary Epithelial Cells. The class given is cell-based. The method, then:
(§1) Immortalized human non-pigmented ciliary epithelial cells (containing EP2 receptors) and Chinese hamster ovary cells (containing EP4 receptors) were stimulated with various prostaglandins for 15-60 min at 23° C. The cAMP produced by receptor activation was determined by a specific radioimmunoassay as previously described (Sharif et. al., Pharmacological analysis of mast cell mediator and neurotransmitter receptors coupled to adenylate cyclase and phospholipase C on immunocytochemically-defined human conjunctival epithelial cells, J. Ocular Pharmacology & Therapeutics, 13:321-336 (1997); Crider et. al., Prostaglandin-stimulated adenylyl cyclase activity via a pharmacologically-defined EP2 receptor in human non-pigmented epithelial cells, J. Ocular Pharmacology & Therapeutics, 14:293-304 (1998); Crider et. al., Use of a semi-automated, robotic radioimmunoassay to measure cAMP generated by activation of DP-, EP2- and IP-prostaglandin receptors in human ocular and other cell-types, Prostaglandins, Leukotrienes & Fatty Acids, 59:77-82 (1998); Milne et. al., Human monocytes and cultured Chinese hamster ovary cells express EP4 receptors positively coupled to adenylate cyclase, Br. J. Pharmacology, 113 (supplement), 8p, (1994)).

For assay [2], the target named is T2, EP4 Receptors in Chinese Hamster Ovary Cells (Cricetulus griseus, UniProt A0A061ILF4).
T2 construct: Chinese hamster ovary cells (containing EP4 receptors); endogenous in cells; host or cells: Chinese hamster ovary cells
Description: cAMP production (radioimmunoassay) via EP4 receptors in Chinese hamster ovary cells. The class given is cell-based. The conditions noted are these: 15-60 min at 23° C.; for EC50: read-out: Potency (EC50, nM) at EP4 Receptors in Chinese Hamster Ovary Cells. The method, then:
as §1

T2 sequence (A0A061ILF4 1-488): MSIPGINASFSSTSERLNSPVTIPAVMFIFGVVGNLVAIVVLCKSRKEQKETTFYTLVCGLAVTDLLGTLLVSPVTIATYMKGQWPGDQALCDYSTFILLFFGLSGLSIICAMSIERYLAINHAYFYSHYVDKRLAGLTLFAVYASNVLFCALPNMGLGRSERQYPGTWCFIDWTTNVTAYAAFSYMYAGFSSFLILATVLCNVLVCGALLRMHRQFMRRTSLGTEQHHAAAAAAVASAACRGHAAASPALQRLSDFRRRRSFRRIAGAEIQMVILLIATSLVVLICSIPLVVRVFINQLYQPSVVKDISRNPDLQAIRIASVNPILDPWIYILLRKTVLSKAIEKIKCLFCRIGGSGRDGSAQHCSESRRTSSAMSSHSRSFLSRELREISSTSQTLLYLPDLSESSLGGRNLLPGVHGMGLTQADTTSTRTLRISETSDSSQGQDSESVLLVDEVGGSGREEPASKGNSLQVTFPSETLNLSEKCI
T1 sequence (P43116 whole entry): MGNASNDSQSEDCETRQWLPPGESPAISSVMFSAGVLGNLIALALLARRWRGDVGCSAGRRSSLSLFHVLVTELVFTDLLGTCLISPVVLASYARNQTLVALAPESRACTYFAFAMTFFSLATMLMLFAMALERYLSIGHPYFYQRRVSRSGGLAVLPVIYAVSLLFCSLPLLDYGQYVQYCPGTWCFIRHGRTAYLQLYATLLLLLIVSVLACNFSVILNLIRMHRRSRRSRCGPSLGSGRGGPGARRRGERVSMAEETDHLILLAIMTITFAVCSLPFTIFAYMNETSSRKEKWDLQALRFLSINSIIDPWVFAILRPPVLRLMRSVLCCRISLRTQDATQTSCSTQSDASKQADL

Take `CCCCC(C)(C)[C@H](O)/C=C/[C@H]1CCC(=O)[C@@H]1C/C=C\CCCC(=O)O` [11-deoxy-16,16-dimethyl-PGE2, 11-deoxy-16,16,-dimethyl-PGE2]: the EC50 in assay [1] came out at 739 nM; in assay [2], 176 nM.
Regarding `CCCCC[C@H](O)/C=C/[C@H]1CCC(=O)[C@@H]1CCCCCCC(=O)O` [11-deoxy-PGE1], in assay [1], the EC50 is 500 nM. Also, in assay [2], the “Efficacy at EP4 Receptors in Chinese Hamster Ovary Cells” value is 86% and the EC50 was 38 nM.
Turning to `CCCCC(C)(C)[C@H](O)/C=C/[C@H]1[C@H](O)CC(=O)[C@@H]1C/C=C\CCCC(=O)O` [16,16-dimethyl-PGE2], the results for the EC50 in assay [1] and in assay [2] were 686 nM and 31 nM, respectively.
For the compound `CCCC1([C@H](O)C/C=C/[C@H]2[C@H](O)CC(=O)[C@@H]2CCCCCCC(=O)OC)CCC1` [Butaprost, reference compound], the EC50 in assay [1] was 212 nM; in assay [2], more than 10000 nM. Also, in assay [1] (comparison of EC50 at EP2 and EP4 receptors), the “Receptor selectivity EP2 versus EP4” value is recorded as “more EP2-selective”.
